Values quoted from earlier work in patent US7514484B2, “Aqueous dispersion of polytetrafluoroethylene and process for its production” (Asahi Glass Company, Limited, priority 2005, dated 2009).
Read-outs that look alike come from different tables or passages of the source.

[1] = additives of Table 3, value of the corresponding acid
[2] = carboxylic acid corresponding to the salt of formula (4)

In the case of `CCCCCCCCCCCC(=O)O.N` [(d), ammonium laurate], the pKa [1] is listed as 4.6.

In the case of `O=C(O)C(F)c1ccccc1` (stereo not shown) [fluorophenyl acetic acid], the pKa [2] is given as 4.3.

In the case of ammonium fluorophenyl acetate [(f)], the pKa [1] is given as 4.3.

In the case of `CCCCCCCCCCCC(=O)O` [lauric acid], the pKa [2] is listed as 4.6.
